Assay results: patent US7049289B1, “Labelled glutamine and lysine analogues” (Amersham PLC, priority 1998, dated 2006)
Read-outs that look alike come from different tables or passages of the source. Where a SMILES comes first, the peptide text is derived from it. The star is where a group is joined. X1 = CC(=NO)C(C)(C)NCC(C)(CNC(C)(C)C(C)=NO)CN*; Cbz = O=C(OCc1ccccc1)*

Experiments:
[1] = target: T1, fibrin (in vitro human plasma clot) (Homo sapiens, UniProt P02671+P02675+P02679); assay: Incorporation into human plasma clots in vitro; format: biochemical; settings: for % specific uptake: % retained (with thrombin) - % retained (no thrombin); for % retained (no thrombin): control without thrombin and calcium chloride (non-specific binding); for % retained (with thrombin): human plasma clot, 60 minutes, ca. 20° C.
T1 construct: about 400 μl of human plasma containing the radiolabelled substrate; from tissue; host or cells: human plasma, clotted in vitro with added thrombin and calcium chloride
T1 sequence (P02671 20-644 isoform P02671-2 limits assumed): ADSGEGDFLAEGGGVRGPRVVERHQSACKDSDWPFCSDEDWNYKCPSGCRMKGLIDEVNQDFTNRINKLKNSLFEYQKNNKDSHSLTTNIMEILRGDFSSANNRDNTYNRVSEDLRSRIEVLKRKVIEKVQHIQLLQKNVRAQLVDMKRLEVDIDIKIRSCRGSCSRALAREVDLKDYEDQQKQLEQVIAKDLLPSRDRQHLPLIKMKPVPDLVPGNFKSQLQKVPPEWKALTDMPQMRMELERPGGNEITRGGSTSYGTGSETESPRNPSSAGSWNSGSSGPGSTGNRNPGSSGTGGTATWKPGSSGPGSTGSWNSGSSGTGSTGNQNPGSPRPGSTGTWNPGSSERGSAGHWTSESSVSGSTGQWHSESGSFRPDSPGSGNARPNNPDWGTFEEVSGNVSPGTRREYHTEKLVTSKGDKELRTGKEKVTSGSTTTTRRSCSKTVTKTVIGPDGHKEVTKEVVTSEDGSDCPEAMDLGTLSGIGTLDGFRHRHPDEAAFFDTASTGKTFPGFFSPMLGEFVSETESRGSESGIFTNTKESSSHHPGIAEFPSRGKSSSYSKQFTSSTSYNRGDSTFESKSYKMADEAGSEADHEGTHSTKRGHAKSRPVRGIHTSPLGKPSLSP
T1 sequence (P02675 45-491 limits assumed): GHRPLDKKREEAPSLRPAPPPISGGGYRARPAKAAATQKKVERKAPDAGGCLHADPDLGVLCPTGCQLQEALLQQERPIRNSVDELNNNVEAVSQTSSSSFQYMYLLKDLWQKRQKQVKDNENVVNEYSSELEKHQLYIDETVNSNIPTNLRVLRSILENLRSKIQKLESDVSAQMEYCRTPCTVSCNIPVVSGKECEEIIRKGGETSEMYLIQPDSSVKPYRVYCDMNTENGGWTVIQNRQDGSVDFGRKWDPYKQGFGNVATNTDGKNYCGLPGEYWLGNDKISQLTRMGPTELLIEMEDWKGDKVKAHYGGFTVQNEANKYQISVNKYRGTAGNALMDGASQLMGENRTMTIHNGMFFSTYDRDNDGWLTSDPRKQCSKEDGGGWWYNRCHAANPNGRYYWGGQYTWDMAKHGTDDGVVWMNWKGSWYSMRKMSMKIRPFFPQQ
T1 sequence (P02679 27-437 isoform P02679-2 limits assumed): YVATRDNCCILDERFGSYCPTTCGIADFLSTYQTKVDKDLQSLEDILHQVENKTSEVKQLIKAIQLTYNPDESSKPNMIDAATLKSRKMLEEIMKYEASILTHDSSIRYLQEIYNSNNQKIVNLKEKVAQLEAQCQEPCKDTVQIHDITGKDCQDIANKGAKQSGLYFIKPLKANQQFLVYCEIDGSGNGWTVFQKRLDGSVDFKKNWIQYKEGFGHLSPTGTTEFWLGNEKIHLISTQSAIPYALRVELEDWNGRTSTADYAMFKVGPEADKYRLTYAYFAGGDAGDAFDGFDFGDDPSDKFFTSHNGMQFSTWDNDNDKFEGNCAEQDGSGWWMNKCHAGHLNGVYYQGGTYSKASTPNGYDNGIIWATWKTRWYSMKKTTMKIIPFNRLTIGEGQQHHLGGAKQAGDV
Summary of the method: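 Fibrin incorporation is expressed as the fraction of total radioactivity retained with filtered clots, corrected for non-specific binding in controls lacking thrombin and calcium chloride. Clotting was induced by thrombin in Ca2+-containing Tris-buffered saline (pH 7.5) with human plasma carrying about 10 kBq/ml tracer, for 60 min at ambient temperature before EDTA quench.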

[2] = Incorporation into clots induced in a rat model (rat inferior vena cava model); format: in vivo, rat (Male Wistar); settings: for % id/g (clot) / Rel. Conc. (cpm/g of clot by dose/g animal): sacrificed after 60 min
Summary of the method: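 Male Wistar rats (250–350 g) under 15% urethane anaesthesia, with the vena cava isolated by laparotomy. Compounds given 5 min (fresh clot) or 60 min (aged clot) after clot induction; clot, blood, lung and heart removed 60 min later, weighed and counted. Uptake expressed as cpm/g clot per dose/g animal and as clot-to-background tissue ratio.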

[3] = In vitro plasma stability (rat plasma)
Method: (§1) To a portion of compound (50 μl, 10 MBq/ml) was added an equal volume of plasma (rat or human) or saline. The mixtures were incubated at 37° C. and the stability measured by HPLC (system C) at 0, 30 and 120 minutes. The saline dilution acted as a control.

[4] = In vitro plasma stability (human plasma)
Method: as §1

[5] = human, plasma, 2 h
Method: as §1

[6] = rat, plasma, 2 h
Method: as §1

[7] = Aged Clots: injected 60 min post-induction
[8] = Fresh Clots: injected 5 min post-induction

Row | Compound | % specific uptake [1] [%] | % retained (no thrombin) [1] [%] | % retained (with thrombin) [1] [%] | Clot/blood ([2]; Aged Clots) | Clot/heart ([2]; Aged Clots) | Clot/liver ([2]; Aged Clots) | Clot/lung ([2]; Aged Clots) | % id/g (clot) [2, 7] [% id/g] | Rel. Conc. (cpm/g of clot by dose/g animal) [2, 7] | Clot/blood ([2]; Fresh Clots) | Clot/heart ([2]; Fresh Clots) | Clot/liver ([2]; Fresh Clots) | Clot/lung ([2]; Fresh Clots) | % id/g (clot) [2, 8] [% id/g] | Rel. Conc. (cpm/g of clot by dose/g animal) [2, 8] | remaining at 2 h [3] [%] | remaining at 2 h [4] [%] | % intact at 120 mins [5] [%] | % intact at 120 mins [6] [%]
1 | CC(=NO)C(C)(C)NCC(C)(CNC(=O)CNC(=O)[C@H](CCCCN)NC(=O)[C@H](CC(C)C)NC(=O)[C@H](CC(C)C)NC(=O)[C@@H](NC(=O)[C@H](Cc1ccc(O)cc1)NC(=O)[C@@H]1CCCN1C(=O)[C@H](CO)NC(=O)[C@@H](NC(=O)[C@H](CCC(N)=O)NC(=O)[C@H](CCC(=O)O)NC(=O)[C@H](CCC(N)=O)NC(=O)[C@H](CC(N)=O)NC(=O)OCc1ccccc1)C(C)C)[C@@H](C)O)CNC(C)(C)C(C)=NO (stereo partly drawn) [^99mTc-Cmpd 7, metal not drawn] (Cbz-NQEQVSPYTLLKG-X1; C-terminus assumed) | 40.6 | 0.7 | 41.3 | 9 | 15 | 3 | 7 | 2.1 ± 0.3 | 6.5 ± 1.3 | 15 | 21 | 6 | 11 | 4.8 ± 1.3 | 14.5 ± 4.4 | > 90 | > 90 | – | –
2 | Ac-NQEQVG-Pn44 [^99mTc-Cmpd 17] | 40.6 | 0.7 | 41.3 | 3 | 7 | 3 | 5 | 0.8 ± 0.1 | 2.7 ± 0.6 | 7 | 18 | 5 | 12 | 1.2 ± 0.7 | 3.7 ± 2.3 | – | – | >90 | >90
3 | Ac-NQEQVSPYTLLKG-Hynic (also: 99mTc complex) [^99mTc-Cmpd 4] | 21.0 | 0.1 | 22.0 | 8 | 19 | 19 | 10 | 1.2 ± 1.1 | 4.1 ± 4.0 | 6 | 15 | 20 | 8 | 2.0 ± 0.6 | 6.5 ± 2.0 | – | – | >90 | >90
